Test results as given in paper PMC5928083, “Structural basis for energy transduction by respiratory alternative complex III” (Nature Communications, 2018).

Target: T1, ACIII (alternative complex III) (Rhodothermus marinus, UniProt D0MDD6)
T1 construct: gene Rmar_0223; native multi-subunit membrane complex purified from R. marinus membranes in DDM; ActB Tat signal peptide (74 residues) absent; one further unidentified subunit; with Quinol:cytochrome c oxidoreductase pentaheme cytochrome subunit (alternative complex III subunit ActA); Quinol:cytochrome c oxidoreductase iron-sulfur protein (alternative complex III subunit ActB); Quinol:cytochrome c oxidoreductase membrane protein (alternative complex III subunit ActD); Quinol:cytochrome c oxidoreductase monoheme cytochrome subunit (alternative complex III subunit ActE); Alternative complex III subunit ActG; Hypothetical protein Rmar_1979 (ActH)
Assay: isothermal titration calorimetry
Type: binding
Details: read-out: log Ka (converted)

Kd: 316 nM
SMILES: CC1=C(C)C(=O)c2ccccc2C1=O [2,3-dimethyl-1,4-naphthoquinone]
